The record followed here is patent publication US8362065B2, “Carbazole carboxamide compounds useful as kinase inhibitors” (Bristol-Myers Squibb Company, priority 2008, dated 2013).

Broadly, the IC50 is the concentration that inhibits the measured activity by half.

The experiment concerns the target T1, human recombinant Btk (Homo sapiens, UniProt Q06187).
T1 construct: purchased Invitrogen Corporation
The experiment in a line: Human Recombinant Btk Enzyme Assay. The experiment is classed as biochemical. The conditions noted are these: human recombinant Btk 1 nM, ATP 20 μM, 60 min at room temperature; read-out: IC50 for Inhibition of Btk.

Where a name gives a salt, the structure may show the parent alone.

T1 sequence (Q06187 whole entry): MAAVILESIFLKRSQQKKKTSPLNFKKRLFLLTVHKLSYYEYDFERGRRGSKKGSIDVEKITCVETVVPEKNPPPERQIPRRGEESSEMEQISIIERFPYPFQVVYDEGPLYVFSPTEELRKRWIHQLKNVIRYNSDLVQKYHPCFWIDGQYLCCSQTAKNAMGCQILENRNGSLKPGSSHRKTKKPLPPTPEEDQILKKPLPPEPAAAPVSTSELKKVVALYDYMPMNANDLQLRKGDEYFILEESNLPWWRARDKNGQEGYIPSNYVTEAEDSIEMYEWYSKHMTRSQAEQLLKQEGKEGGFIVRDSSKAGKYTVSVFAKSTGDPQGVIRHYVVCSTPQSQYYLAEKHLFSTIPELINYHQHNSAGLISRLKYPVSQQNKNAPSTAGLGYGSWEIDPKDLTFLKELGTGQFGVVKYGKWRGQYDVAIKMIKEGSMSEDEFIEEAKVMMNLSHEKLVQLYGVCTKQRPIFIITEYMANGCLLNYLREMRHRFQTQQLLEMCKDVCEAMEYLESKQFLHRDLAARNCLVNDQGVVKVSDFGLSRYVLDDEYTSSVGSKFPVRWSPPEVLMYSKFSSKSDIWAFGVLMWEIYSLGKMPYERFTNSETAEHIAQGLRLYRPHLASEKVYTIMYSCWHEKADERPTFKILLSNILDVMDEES

Consider `Cc1c(NC(=O)c2ccc(S(N)(=O)=O)cc2)cccc1-c1ccc(C(N)=O)c2[nH]c3cc(C(=O)N4CCN(C)CC4)ccc3c12` [Example 5-69, 4-(2-methyl-3-(4-sulfamoylbenzamido)phenyl)-7-(4-methylpiperazine-1-carbonyl)-9H-carbazole-1-carboxamide (prepared as the TFA salt)], for which the half-inhibitory concentration (IC50) amounted to 0.002 µM.

With `Cc1c(NC(=O)C2(C#N)CC2)cccc1-c1ccc(C(N)=O)c2[nH]c3cc(C(=O)N4CCN(C)CC4)ccc3c12` [Example 5-73, 4-(3-(1-cyanocyclopropanecarboxamido)-2-methylphenyl)-7-(4-methylpiperazine-1-carbonyl)-9H-carbazole-1-carboxamide (prepared as the TFA salt)], the IC50 was found to be 0.018 µM.

Take `Cc1nc(NC(=O)c2ccccc2)sc1-c1ccc(C(N)=O)c2[nH]c3c(c12)CCC(C(=O)NC1CCOCC1)C3` (stereo not drawn) [Example 5-86]: the IC50 was 0.91 µM.

Consider `Cc1c(NC(=O)Nc2ccccc2)cccc1-c1ccc(C(N)=O)c2[nH]c3cc(C(=O)N4CCN(C)CC4)ccc3c12` [Example 8-3, 4-(2-methyl-3-(3-phenylureido)phenyl)-7-(4-methylpiperazine-1-carbonyl)-9H-carbazole-1-carboxamide], for which the IC50 worked out at 0.016 µM.

In the case of `Cc1c(NS(=O)(=O)CCCCl)cccc1-c1ccc(C(N)=O)c2[nH]c3cc(C(=O)N4CCN(C)CC4)ccc3c12` [Example 10-4, 4-(3-(3-chloropropylsulfonamido)-2-methylphenyl)-7-(4-methylpiperazine-1-carbonyl)-9H-carbazole-1-carboxamide], the half-maximal inhibitory concentration (IC50) is 0.017 µM.

Consider `Cc1c(Nc2nccc3ccccc23)cccc1-c1ccc(C(N)=O)c2[nH]c3cc(C(=O)N4CCN(C)CC4)ccc3c12` [Example 11-1, 4-(3-(isoquinolin-1-ylamino)-2-methylphenyl)-7-(4-methylpiperazine-1-carbonyl)-9H-carbazole-1-carboxamide], for which the IC50 turned out to be 0.015 µM.

For `Cc1c(-c2ccc(C(N)=O)c3[nH]c4cc(C(=O)N5CCN(C)CC5)ccc4c23)cccc1N1CCCS1(=O)=O` [Example 12-1, 4-(3-(1,1-dioxoisothiazolidin-2-yl)-2-methylphenyl)-7-(4-methylpiperazine-1-carbonyl)-9H-carbazole-1-carboxamide], the half-maximal inhibitory concentration (IC50) stood at 0.018 µM.

For `CN1CCN(C(=O)c2ccc3c(c2)[nH]c2c(C(N)=O)ccc(N4CCC[C@@H](N)C4)c23)CC1` [Example 17-1, (R)-4-(3-aminopiperidin-1-yl)-7-(4-methylpiperazine-1-carbonyl)-9H-carbazole-1-carboxamide], the IC50 was found to be 1.1 µM.

`CN1CCN(C(=O)c2ccc3c(c2)[nH]c2c(C(N)=O)ccc(N4CCC[C@@H](NC(=O)Nc5nccs5)C4)c23)CC1` [Example 19-1, (R)-7-(4-methylpiperazine-1-carbonyl)-4-(3-(3-thiazol-2-ylureido)piperidin-1-yl)-9H-carbazole-1-carboxamide]: the half-inhibitory concentration (IC50) stood at 0.017 µM.

On to `CN1CCN(C(=O)c2ccc3c(c2)[nH]c2c(C(N)=O)ccc(N4CCCCC4=O)c23)CC1` [Example 20-1, 7-(4-methylpiperazine-1-carbonyl)-4-(2-oxopiperidin-1-yl)-9H-carbazole-1-carboxamide], for which the IC50 came out at 0.51 µM.

Regarding `Cc1c(NC(=O)c2ccc(F)cc2)cccc1-c1ccc(C(N)=O)c2[nH]c3cc(C(N)=O)ccc3c12` [Example 24-1, 4-(3-(4-fluorobenzamido)-2-methylphenyl)-9H-carbazole-1,7-dicarboxamide], the IC50 is 0.017 µM.

Take `Cc1c(NC(=O)c2ccc(F)cc2)cccc1-c1ccc(C(N)=O)c2[nH]c3cc(C(=O)N4CCN(CCO)CC4)ccc3c12` [Example 24-17, 4-(3-(4-fluorobenzamido)-2-methylphenyl)-7-(4-(2-hydroxyethyl)piperazine-1-carbonyl)-9H-carbazole-1-carboxamide (prepared as the TFA salt)]: the IC50 stood at 0.015 µM.

With `COc1cccc(NC(=O)c2ccc3c(c2)[nH]c2c(C(N)=O)ccc(-c4cccc(NC(=O)c5ccc(F)cc5)c4C)c23)c1` [Example 24-33, 4-(3-(4-fluorobenzamido)-2-methylphenyl)-N^7-(3-methoxyphenyl)-9H-carbazole-1,7-dicarboxamide (prepared as the TFA salt)], the IC50 turned out to be 0.47 µM.

With `Cc1c(NC(=O)c2ccc(F)cc2)cccc1-c1ccc(C(N)=O)c2[nH]c3cc(C(=O)Nc4ccc(F)cc4)ccc3c12` [Example 24-34, 4-(3-(4-fluorobenzamido)-2-methylphenyl)-N^7-(4-fluorophenyl)-9H-carbazole-1,7-dicarboxamide (prepared as the TFA salt)], the IC50 worked out at 0.41 µM.

For the compound `Cc1c(-c2ccc(C(N)=O)c3[nH]c4c(c23)CCC(CO)C4)cccc1N1C(=O)c2ccc(C(C)(C)C)cc2C1=O` (stereo not drawn) [Example 31-2, 5-(3-(5-tert-butyl-1,3-dioxoisoindolin-2-yl)-2-methylphenyl)-2-(hydroxymethyl)-2,3,4,9-tetrahydro-1H-carbazole-8-carboxamide], the IC50 came to 0.7 µM.

Regarding `CC(=O)OCC1CCc2c([nH]c3c(C(N)=O)ccc(-c4cccc(N5C(=O)c6ccc(C(C)(C)C)cc6C5=O)c4C)c23)C1` (stereo not drawn) [Example 31-3, (5-(3-(5-tert-butyl-1,3-dioxoisoindolin-2-yl)-2-methylphenyl)-8-carbamoyl-2,3,4,9-tetrahydro-1H-carbazol-2-yl)mEtOAc], the 50% inhibitory concentration (IC50) worked out at 1.5 µM.

For the compound `Cc1c(-c2ccc(C(N)=O)c3[nH]c4cc(CN)ccc4c23)cccc1N1Cc2ccccc2C1=O` [Example 33-1, 7-(aminomethyl)-4-(2-methyl-3-(1-oxoisoindolin-2-yl)phenyl)-9H-carbazole-1-carboxamide], the half-maximal inhibitory concentration (IC50) worked out at 0.0019 µM.

As to `Cc1c(-c2ccc(C(N)=O)c3[nH]c4cc(CNC(=O)CO)ccc4c23)cccc1N1Cc2ccccc2C1=O` [Example 34-2, 7-((2-hydroxyacetamido)methyl)-4-(2-methyl-3-(1-oxoisoindolin-2-yl)phenyl)-9H-carbazole-1-carboxamide], the IC50 came out at 0.002 µM.

As to `CC(=O)NCc1ccc2c(c1)[nH]c1c(C(N)=O)ccc(-c3cccc(N4Cc5ccc(F)cc5C4=O)c3C)c12` [Example 38-2, 7-(acetamidomethyl)-4-(3-(6-fluoro-1-oxoisoindolin-2-yl)-2-methylphenyl)-9H-carbazole-1-carboxamide], the IC50 came to 0.0021 µM.

Take `Cc1c(NC(=O)c2ccc(F)cc2)cccc1-c1ccc(C(N)=O)c2[nH]c3cc(CN4CCCC4)ccc3c12` [Example 39-4]: the IC50 was found to be 0.0017 µM.

Turning to `Cc1c(-c2ccc(C(N)=O)c3[nH]c4cc(O)ccc4c23)cccc1N1Cc2ccccc2C1=O` [Example 41-1, 7-hydroxy-4-(2-methyl-3-(1-oxoisoindolin-2-yl)phenyl)-9H-carbazole-1-carboxamide], the half-maximal inhibitory concentration (IC50) is 0.016 µM.

`NC(=O)c1ccc(-c2ccccc2F)c2c3c([nH]c12)CCC(Oc1ccccc1)C3` (stereo not drawn) [Example 47-2, 5-(2-fluorophenyl)-3-phenoxy-2,3,4,9-tetrahydro-1H-carbazole-8-carboxamide]: the IC50 stood at 4.2 µM.

For the compound `NC(=O)c1ccc(-c2ccccc2F)c2c1[nH]c1ccc(Oc3ccccc3)cc12` [Example 48-2], the IC50 was determined as 1.7 µM.

For the compound `NC(=O)c1ccc(Br)c2c1[nH]c1cc(NC(=O)OCc3ccccc3)ccc12` [Example 50-3, benzyl 5-bromo-8-carbamoyl-9H-carbazol-2-ylcarbamate], the IC50 amounted to 1.3 µM.
